These results are taken from PMC9227096, “Design, Synthesis, and In Vitro, In Silico and In Cellulo Evaluation of New Pyrimidine and Pyridine Amide and Carbamate Derivatives as Multi-Functional Cholinesterase Inhibitors” (Pharmaceuticals, 2022).

Common to all, as to assay type: biochemical
Assay [1] concerns the target T1, equine BChE (eqBChE) (Equus caballus, UniProt P81908).
T1 construct: purchased Sigma-Aldrich (Milan, Italy)
Put plainly: Ellman's spectrophotometric method, percent inhibition of eqBChE (zero time and after 1 h incubation). The following applies: for inhibition at 9 µM / % Inhibition vs. eqBChE ± SD: [I] 9 µM; for inhibition at 9 µM / inhibition at 0.9 µM: read-out: % Inhibition vs. eqBChE ± SD. As for the experimental part: (§1) Regarding the synthesized compounds enzymatic inhibition studies were carried out on Electrophorus electricus AChE (EeAChE) and equine BChE (eqBChE), according to Ellman’s spectrophotometric method.
(§2) All other chemical and biological reagents and solvents used were of the highest analytical, commercially available grade. The water, utilized for the preparation of the phosphate buffer and of the solutions of compounds, was distilled and filtered on nylon membrane filters with 0.2 μm pore size with the Millipore® Filtration apparatus before each use. Micropipettes Labmate (BRAND Dig. 10–100 μL; Dig. 100–1000 μL; Dig. 0.1–2 μL) and Transferpette (HIGH TECH LAB LM200: 20–200 μL; LM5000: 1000–5000 μL) were used to collect the samples. The assays were carried out by double beam UV–Vis Lambda 40 Perkin Elmer spectrophotometer, using optical polystyrene cuvettes (10 × 10 × 45 mm, 340–800 nm optical transparency), each measure was repeated at least in triplicate. […] Vivaspin® 2 Sartorius, with a membrane of 3000 MWCO (molecular weight cutoff) consisting of polyethersulfone (PES), cellulose triacetate (CTA) and hydrosart, was used for the ultrafiltration procedures. An ALC PK110 bench-top centrifuge was used for centrifugation. The spectrophotometric method of Ellman, with minor modifications, was used to evaluate the inhibition of cholinesterase enzymes. […] EeAChE and eqBChE were periodically tested to evaluate the effective enzymatic activity.
(§3) An amount of 3.0 mL of a solution in 0.1 M phosphate buffer (pH = 7.4) containing DTNB (0.25 mM) and EeAChE (0.083 UmL^−1) or eqBChE (0.083 UmL^−1) were placed in a polystyrene cuvette of 1.0 cm path length; 1 µL of a solution in DMSO of the tested compound was added to obtain in cuvette concentration range 9 µM–0.09 µM. With this solution the blank was made.
(§4) Each experiment was repeated at least in triplicate.
(§5) The cuvettes were prepared consecutively at intervals of 3 min to allow equal incubation times.
For orientation: In Ellman's method for cholinesterases, released thiocholine reacts with DTNB.

Assay [2] concerns the target T2, Electrophorus electricus AChE (EeAChE) (Electrophorus electricus, UniProt O42275).
T2 construct: purchased Sigma-Aldrich (Milan, Italy)
Description: Ellman's spectrophotometric method, percent inhibition of EeAChE (zero time and after 1 h incubation). The following applies: for % Inhibition vs. EeAChE ± SD: [I] 9 µM; for inhibition at 0.9 µM: read-out: % Inhibition vs. EeAChE ± SD, [I] 900 nM. As for the experimental part:
as §1, §2, §3, §4, §5

Assay [3] has as its target T1, equine BChE (eqBChE). Description: Reversibility of inhibition vs. eqBChE (ultrafiltration and washing). The following applies: for inhibition at 54 µM: carbaryl 54 µM. As for the experimental part:
Moreover, it was evaluated whether the inhibition mechanism of carbamate 18 towards eqBChE is reversible, irreversible or pseudo-irreversible. For this purpose, the percentages of inhibition were determined both after one hour of the incubation of compound 18 (5.4 µM) with eqBChE (1.25 U), both following the removal of the inhibitor and the washing of the enzyme, carried out through ultrafiltration devices for the concentration of biological samples [35, 36]. To validate the method, the same study was performed with carbaryl (54 µM), a known carbamoylating cholinesterase inhibitor.
After the incubation phase, the solution containing the inhibitor not bound to the enzyme was removed by centrifugation, retaining eqBChE on the membrane of the ultrafiltration devices. Then the enzyme was washed with phosphate buffer, to remove the bound inhibitor and to restore the enzyme activity.
Three solutions were prepared in 0.1 M phosphate buffer (pH = 7.4), containing eqBChE (0.50 UmL^−1), DTNB (0.3 mM) and acetylthiocholine (10 mM), respectively. A solution of compound 18 in DMSO (2.7 mM) was prepared. Then six Vivaspin® were used: • three were prepared with 2.5 mL of eqBChE solution (0.50 UmL^−1) and 5 µL of inhibitor solution; • three were prepared with 2.5 mL of eqBChE solution (0.50 UmL^−1) and 5 µL of DMSO.
The Vivaspin® thus prepared were incubated for 1 h at 25 °C. After this time the percentage of inhibition was determined following the Ellman method. The blank was recorded by taking 500 µL from the Vivaspin® and diluting them in the cuvette in 2.5 mL of DTNB solution (0.3 mM). The reaction was activated by adding 30 μL of acetylthiocholine solution (10 mM), so as to obtain a final concentration of 100 µM in the cuvette. The absorbance variation was measured between 0.5 and 1.5 min at 412 nm, repeating the measurement for each of the six Vivaspin®.
After this procedure the first centrifugation of the Vivaspin® was carried out for 60 min at 4000 rpm and subsequently the solutions that crossed the membrane and settled in the filtrate tube were removed. In this way the solutions present in the concentrator body were concentrated up to 100 µL. To these solutions 1 mL of 0.1 M phosphate buffer (pH = 7.4) was added and the second centrifugation was carried out for 30 min at 4000 rpm. The solutions present in the concentrator body were concentrated up to 200 µL. The second washing was carried out, adding 1 mL of buffer and centrifuging for 30 min at 4000 rpm. The solutions present in the concentrator body were concentrated up to 250 µL. A third wash was carried out adding 1 mL of buffer and centrifuging for 50 min at 4000 rpm. The solutions present in the concentrator body were concentrated up to 150 µL. At this point, to recover the concentrated solution, the filtrate tube was removed, the concentrator body was turned upside down and inserted inside the concentrate recovery cap. The Vivaspin® was centrifuged for 10 min at 4000 rpm. After this time the recovered solution was taken up with 3 mL of DTNB solution (0.3 mM) and transferred into the cuvette: blank was recorded. The reaction was activated when 30 µL of substrate solution (10 mM) were added so as to have a final concentration of 100 µM in the cuvette. The absorbance variation between 0.5 and 1.5 min was measured at 412 nm, repeating the measurement for each of the recovered solutions.
As a positive control carbaryl was used, for which the same procedure was followed, using a 27 mM carbaryl stock solution in DMSO.

Where [4] appears, read: 0.0833 U/mL enzyme, 100 µM acetylthiocholine.
Where [5] appears, read: read-out: % Inhibition vs. EeAChE ± SD, [I] 9 µM, 0.0833 U/mL enzyme, 100 µM acetylthiocholine.
Where [6] appears, read: [I] 900 nM, 0.0833 U/mL enzyme, 100 µM acetylthiocholine.
The mark [7] stands for this setting: 1 h, [I] = 900 nM, t = 1 h incubation at 25 °C.
Setting [8] is: 1 h, read-out: % Inhibition vs. EeAChE ± SD, [I] = 9 µM, t = 1 h incubation at 25 °C.

Each structure is given as a SMILES string. Read-outs that look alike come from different tables or passages of the source.

T2 sequence (O42275 24-633): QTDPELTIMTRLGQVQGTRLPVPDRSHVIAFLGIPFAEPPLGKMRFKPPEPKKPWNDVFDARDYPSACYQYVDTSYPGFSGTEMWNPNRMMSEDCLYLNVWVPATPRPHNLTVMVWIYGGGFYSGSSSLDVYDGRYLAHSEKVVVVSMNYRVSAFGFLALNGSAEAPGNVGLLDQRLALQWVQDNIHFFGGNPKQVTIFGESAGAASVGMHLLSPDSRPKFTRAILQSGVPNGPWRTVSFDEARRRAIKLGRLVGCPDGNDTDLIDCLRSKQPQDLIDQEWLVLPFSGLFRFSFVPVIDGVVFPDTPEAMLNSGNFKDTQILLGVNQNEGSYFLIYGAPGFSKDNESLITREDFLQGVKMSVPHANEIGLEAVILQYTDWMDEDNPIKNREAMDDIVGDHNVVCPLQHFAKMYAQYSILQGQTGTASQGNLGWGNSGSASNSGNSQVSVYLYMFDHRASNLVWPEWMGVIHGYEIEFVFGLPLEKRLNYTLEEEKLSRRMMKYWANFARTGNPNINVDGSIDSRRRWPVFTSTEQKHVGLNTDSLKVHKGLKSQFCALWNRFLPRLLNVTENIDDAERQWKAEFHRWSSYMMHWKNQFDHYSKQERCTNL
T1 sequence (P81908 whole entry): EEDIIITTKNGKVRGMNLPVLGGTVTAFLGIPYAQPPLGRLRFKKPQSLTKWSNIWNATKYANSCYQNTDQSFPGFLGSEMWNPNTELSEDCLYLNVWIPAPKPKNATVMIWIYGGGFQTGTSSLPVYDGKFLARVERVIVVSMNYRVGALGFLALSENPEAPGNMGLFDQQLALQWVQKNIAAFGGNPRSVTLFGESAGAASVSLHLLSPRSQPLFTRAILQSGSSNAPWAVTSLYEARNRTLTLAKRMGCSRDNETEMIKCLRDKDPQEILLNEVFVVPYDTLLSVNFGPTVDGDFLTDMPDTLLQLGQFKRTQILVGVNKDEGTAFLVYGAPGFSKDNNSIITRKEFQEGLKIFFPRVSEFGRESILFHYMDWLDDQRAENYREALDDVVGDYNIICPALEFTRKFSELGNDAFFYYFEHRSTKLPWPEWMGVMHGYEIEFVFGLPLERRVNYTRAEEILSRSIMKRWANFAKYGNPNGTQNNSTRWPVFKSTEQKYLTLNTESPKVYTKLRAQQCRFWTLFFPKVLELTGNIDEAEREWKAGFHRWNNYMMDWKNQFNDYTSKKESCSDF

With `O=C(NCCCCCCNc1ncccn1)c1ccccc1` [Compound 3, N-(6-(pyrimidin-2-ylamino)hexyl)benzamide], the values for the inhibition at 9 µM in assay [1] (setting [4]) and in assay [2] (setting [5]) were around 9% and around 3%, respectively.

For the compound `O=C(Cc1ccccc1)NCCCCCCNc1ncccn1` [Compound 4, 2-phenyl-N-(6-(pyrimidin-2-ylamino)hexyl)acetamide], the inhibition – broadly, the share of the control response that was lost under treatment – at 9 µM is 5.1 ± 4.7% in assay [1] (setting [4]) and 5 ± 4.4% in assay [2] (setting [5]).

For the compound `O=C(Cc1ccc(Oc2ccccc2)cc1)NCCCCCCNc1ncccn1` [Compound 5, 2-(4-phenoxyphenyl)-N-(6-(pyrimidin-2-ylamino)hexyl)acetamide], the inhibition at 9 µM was 16.6 ± 5.5% in assay [1] (setting [4]) and 10.8 ± 2.7% in assay [2] (setting [5]).

Regarding `O=C(C=Cc1ccccc1)NCCCCCCNc1ncccn1` [Compound 6, N-(6-(pyrimidin-2-ylamino)hexyl)cinnamamide], the “% Inhibition vs. eqBChE ± SD” value in assay [1] (setting [4]) is “ns ^c”. Further, in assay [2] (setting [4]), the “% Inhibition vs. EeAChE ± SD” value is recorded as “ns ^c” and the inhibition at 0.9 µM was 7 ± 1.6%.

For the compound `O=C(NCCCCCCNc1ncccn1)c1ccc(Br)cc1` [Compound 7, 4-bromo-N-(6-(pyrimidin-2-ylamino)hexyl)benzamide], the results for the inhibition at 9 µM in assay [1] (setting [4]) and in assay [2] (setting [5]) were 7.4 ± 2% and 11.2 ± 5%, respectively.

With `O=C(NCCCCCCNc1ncccn1)c1ccc(Cl)cc1` [Compound 8, 4-chloro-N-(6-(pyrimidin-2-ylamino)hexyl)benzamide], the results for the inhibition at 9 µM in assay [1] (setting [4]) and in assay [2] (setting [5]) were 2.1 ± 3.5% and 9.9 ± 0.8%, respectively.

For `COc1ccccc1C(=O)NCCCCCCNc1ncccn1` [Compound 9, 2-methoxy-N-(6-(pyrimidin-2-ylamino)hexyl)benzamide], the inhibition at 9 µM is 9.3 ± 2.4% in assay [1] (setting [4]) and 7.2 ± 0.8% in assay [2] (setting [5]).

As for `O=C(NCCCCCCNc1ncccn1)c1cc2ccccc2[nH]1` [Compound 11, N-(6-(pyrimidin-2-ylamino)hexyl)-1H-indole-2-carboxamide], the inhibition at 0.9 µM in assay [1] (setting [6]) turned out to be 14.1 ± 4.7%. For the same compound, the “% Inhibition vs. eqBChE ± SD” value in assay [1] (setting [4]) is on record as “ns ^c”. Also, in assay [2] (setting [4]), the “% Inhibition vs. EeAChE ± SD” value is “ns ^c” and the inhibition at 0.9 µM came out at 5.5 ± 1.4%.

As for `O=C(Cc1ccccc1)NCCCCCCNc1ccccn1` [Compound 13, 2-phenyl-N-(6-(pyridine-2-ylamino)hexyl)acetamide], the inhibition at 0.9 µM in assay [1] (setting [6]) is 4.3 ± 5.6%. Moreover, the figures for the inhibition at 9 µM in assay [1] (setting [4]) and in assay [2] (setting [5]) were 49.1 ± 3.2% and 46.7 ± 1.1%, respectively.

Turning to `O=C(C=Cc1ccccc1)NCCCCCCNc1ccccn1` [Compound 15, N-(6-(pyridin-2-ylamino)hexyl)cinnamamide], the inhibition at 0.9 µM in assay [1] (setting [6]) was 31.5 ± 3.1%. For the same compound, the results for the inhibition at 9 µM in assay [1] (setting [4]) and in assay [2] (setting [5]) were 64.7 ± 2.9% and 45.4 ± 2.5%, respectively.

Regarding `O=C(NCCCCCCNc1ncccn1)Oc1ccccc1` [Compound 16, Phenyl (6-(pyrimidin-2-ylamino)hexyl)carbamate], the inhibition at 0.9 µM in assay [1] (setting [7]) came to 66.4 ± 5.9%. Moreover, the inhibition at 9 µM in assay [2] (setting [8]) is 7.2 ± 0.8%.

In the case of `O=C(NCCCCCCNc1ncccn1)OCc1ccccc1` [Compound 17, Benzyl (6-(pyrimidin-2-ylamino)hexyl)carbamate], the inhibition at 0.9 µM in assay [1] (setting [7]) was found to be 13.3 ± 3.9%. In addition, the inhibition at 9 µM in assay [2] (setting [8]) is 10.9 ± 1.4%.

For the compound `O=C(NCCCCCCNc1ccccn1)OCc1ccccc1` [Compound 19, Benzyl (6-(pyridin-2-ylamino)hexyl)carbamate], the inhibition at 0.9 µM in assay [1] (setting [7]) amounted to 32.4 ± 7.5%. For the same compound, the inhibition at 9 µM in assay [2] (setting [8]) worked out at 45.4 ± 2.7%.

As for `CNC(=O)Oc1cccc2ccccc12` [carbaryl, reference compound], the inhibition at 54 µM in assay [3] (after ultrafiltration and washing with phosphate buffer, read-out: percentage of inhibition of eqBChE after removal of inhibitor and washing of the enzyme) stood at 29.9%; in assay [3] (before washing, read-out: percentage of inhibition of eqBChE after one hour of incubation), 97.4%. Besides, the “inhibition mechanism towards eqBChE (reversible, irreversible or pseudo-irreversible)” value in assay [3] (from restoration of enzymatic activity after washing) is “pseudo-irreversible”.
